Structures can show the parent of a compound that is named as a salt.
Experiments:
[1] = Solubility of the mesylate salt in H2O; assay type: physicochemical
Procedure: To obtain the methansulphonate salt (mesylate salt), 4 ml of 0.1N CH3SO3H in EtOAc was added to a solution of 145 mg (0.4 mmol) 6-cyclopropylamino-9-(2-fluorobenzyl)-2-trifluoromethylpurine in EtOAc. Then, 1 ml of hexane was added to a warm solution and the resultant mixture was allowed to crystallize (within a refrigerator). The solid was collected to give 148 mg of the mesylate salt. […] M.p. 167.5-169.0 C; m.p. 114-118 C for free base.

[2] = tested on: rats; assay: Passive avoidance in rats, an in vivo test for learning and memory; design: species or system rat; settings: MK-801 0.1 mg/kg pretreatment, retention test 24 hours after electric shock, compared to the vehicle, p<0.001
Procedure: The test was performed as previously described (Zhang, H.-T., Crissman, A. M., Dorairaj, N. R., Chandler, L. J., and O'Donnell, J. M., Neuropsychopharmacology, 2000, 23, 198-204.). The apparatus (Model E10-16SC, Coulbourn Instruments, Allentown, Pa.) consisted of a two-compartment chamber with an illuminated compartment connected to a darkened compartment by a guillotine door. The floor of the darkened compartment consisted of stainless steel rods through which an electric foot-shock could be delivered from a constant current source. All experimental groups were first habituated to the apparatus the day before the start of the experiment. During the training, the rat (Male Spraque-Dawley (Harlan) weighing 250 to 350 g) was placed in the illuminated compartment facing away from the closed guillotine door for 1 minute before the door was raised. The latency for entering the darkened compartment was recorded. After the rat entered the darkened compartment, the door was closed and a 0.5 mA electric shock was administered for 3 seconds. […] The latency for entering the darkened compartment was recorded for up to 180 seconds, at which time the trial was terminated.
(§1) All data were analyzed by analyses of variance (ANOVA); individual comparisons were made using Kewman-Keuls tests. […]

[3] = tested on: rats; assay: Radial arm maze task in rats, an in vivo test for learning and memory; design: species or system rat; settings: MK-801 0.1 mg/kg i.p., compared to control, p<0.01
Procedure: The test was performed as previously described (Zhang, H.-T., Crissman, A. M., Dorairaj, N. R., Chandler, L. J., and O'Donnell, J. M., Neuropsychopharmacology, 2000, 23, 198-204.). Five days after initial housing, rats (male Spraque-Dawley (Harlan) weighing 250 to 350 g) were placed in the eight-arm radial maze (each arm was 60×10×12 cm high; the maze was elevated 70 cm above the floor) for acclimation for two days. Rats were then placed individually in the center of the maze for 5 minutes with food pellets placed close to the food wells, and then, the next day, in the wells at the end of the arms; 2 sessions a day were conducted. Next, four randomly selected arms were then baited with one pellet of food each. The rat was restricted to the center platform (26 cm in diameter) for 15 seconds and then allowed to move freely throughout the maze until it collected all pellets of food or 10 minutes passed, whichever came first. Four parameters were recorded: 1) working memory errors, i.e., entries into baited arms that had already been visited during the same trial; 2) reference memory errors, i.e., entries into unbaited arms; 3) total arm entries; and 4) the test duration (seconds), i.e., the time spent in the collection of all the pellets in the maze. […]
as §1

Row | SMILES | solubility in H2O [1] | latency for entering the darkened compartment [2] | reference memory errors (frequency) [3] | working memory errors (frequency) [3]
1 | Fc1ccccc1Cn1cnc2c(NC3CC3)nc(C(F)(F)F)nc21 [Example 4 mesylate salt, 6-cyclopropylamino-9-(2-fluorobenzyl)-2-trifluoromethylpurine] | relatively insoluble |  |  | 
2 | C[C@]12N[C@H](Cc3ccccc31)c1ccccc12 [MK-801] |  | markedly reduced this latency | increased the frequencies | increased the frequencies
